The NIST ThermoML archive (doi:10.1016/j.jct.2019.02.020)

Assay: mn = molality of the nth substance listed, in mol/kg
Details: 100 kPa, Liquid; for viscosity: Falling or rolling sphere viscometry; for mass density: Vibrating tube method

O=S(=O)([O-])[O-].[O]=[V+2] [oxovanadium(IV) sulfate] + O
Details | mass density, 293.15 K [kg/m3] | mass density, 303.15 K [kg/m3] | viscosity, 283.15 K [mPa·s] | viscosity, 288.15 K [mPa·s] | viscosity, 293.15 K [mPa·s] | viscosity, 298.15 K [mPa·s] | viscosity, 303.15 K [mPa·s] | viscosity, 308.15 K [mPa·s] | viscosity, 313.15 K [mPa·s] | viscosity, 318.15 K [mPa·s]
m1 = 0.2501 | 1034.67 | 1031.66 | 1.551 | 1.347 | 1.183 | 1.049 | 0.9378 | 0.8442 | 0.764 | 0.6958
m1 = 0.5 | 1069.8 | 1066.39 | 1.861 | 1.61 | 1.409 | 1.244 | 1.108 | 0.9929 | 0.897 | 0.8143
m1 = 0.7507 | 1104.11 | 1100.34 | 2.242 | 1.932 | 1.682 | 1.479 | 1.311 | 1.171 | 1.053 | 0.9528
m1 = 0.9964 | 1136.2 | 1132.1 | 2.697 | 2.312 | 2.005 | 1.755 | 1.55 | 1.379 | 1.235 | 1.113
m1 = 1.25 | 1169.5 | 1165.09 | 3.308 | 2.816 | 2.429 | 2.115 | 1.859 | 1.646 | 1.468 | 1.319
m1 = 1.5 | 1201.04 | 1196.42 | 4.052 | 3.427 | 2.936 | 2.543 | 2.223 | 1.959 | 1.74 | 1.556
m1 = 1.75 | 1231.58 | 1226.74 | 4.966 | 4.171 | 3.548 | 3.052 | 2.66 | 2.334 | 2.064 | 1.838
m1 = 2 | 1261.16 | 1256.15 | 6.108 | 5.092 | 4.304 | 3.679 | 3.18 | 2.783 | 2.445 | 2.168
m1 = 2.249 | 1289.97 | 1284.81 | 7.543 | 6.238 | 5.238 | 4.448 | 3.824 | 3.32 | 2.916 | 2.575
m1 = 2.499 | 1317.94 | 1312.66 | 9.273 | 7.615 | 6.348 | 5.359 | 4.58 | 3.953 | 3.446 | 3.029
m1 = 2.75 | 1345.06 | 1339.67 | 11.55 | 9.405 | 7.784 | 6.524 | 5.544 | 4.758 | 4.126 | 3.608
